The values below come from patent US12486274B2, “Substituted pyrazolo-pyrimidines and uses thereof” (Verge Analytics, Inc., priority 2020, dated 2025).

Broadly, the IC50 is the midpoint of a concentration-inhibition curve. The EC50 is the midpoint of the concentration-response curve.

In experiment [1] the target is Full length human recombinant PIKFYVE (Homo sapiens (Human), UniProt Q9Y2I7). In words: Inhibition of PIKfyve (microfluidic electrophoresis kinase assay). Format: biochemical. Particulars: 2 nM enzyme, PI3P/PS substrate, 3 h at room temperature, 12 concentrations. The method, boiled down:
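GST-tagged full-length PIKfyve (baculovirus-expressed, 2 nM final) with fluorescent PI3P/PS substrate (1 μM PI3P) and […] in HEPES pH 7.5 with Mg2+/Mn2+, 1% DMSO, 3 h at room temperature; 12 concentrations. PI(3,5)P product and substrate separated by microfluidic electrophoresis; % inhibition from product/sum ratio.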

For experiment [2], the system named is C9 iPSC MN (ALS patient derived motor neurons). In words: iPSC MN Survival assay. Format: cell-based, human. Particulars: for C9 iPSC MN Survival hazard ratio: maximal reduction in hazard ratio vs control (Cox regression), <1.0 indicates increased survival; for EC50: Homo sapiens, iPSC, 144 h, motor neurons in nutrient deprived media (HBSS), six days, GFP imaging, read-out: C9 iPSC MN Significant survival rescue EC50. The method, then:
[The source words this procedure for another variant and reports this variant under the same test.] iPSC MN Survival assay: Fibroblasts from ALS patients with known SOD1 A4V mutation were reprogrammed into inducible pluripotent stem cells (iPSC) and then differentiated to motor neurons. In culture, ALS patient derived motor neurons show increased death rate compared to motor neurons derived from healthy individuals in a stressed condition (nutrient deprived media, Hank's buffered salt solution-HBSS).
Cell rescue was measured following more than two different concentrations of each compound for six days with greater than four replicates in a 96-well format to ensure studies with power >0.8. Cells are transduced with a GFP reporter and imaged once a day to track survival. A broad-spectrum caspase inhibitor served as the positive control.
Microscopy image-based readout: Cells are transduced with a GFP reporter and imaged once a day with a blue laser to track survival. Imagers used include the Biotek Cytation 5 and Thermo Fisher EVOS Auto FL 2. All Images undergo uniform processing consisting of rolling hat background subtraction and contrast adjustment.
Cells are identified by their shape and each cell is tracked across images and time points for each well. Survival is visually assessed from the Kaplan-Meier curves. Survival of the cells is modeled and tested using a mixed effects Cox regression where each well is modeled as the random effect, and the group (control/treatment) as the fixed effect. Hazard ratios between treatment and control are estimated within the Cox regression where a value of 1.0 denotes no change, values >1.0 indicate decreased survival in response to treatment, and values <1.0 indicate increased survival in response to treatment. Data are presented as the maximal reduction in hazard ratio scores measured at various concentrations.

Experiment [3] has as its system HEK 293T transfected with plasmids containing TDP-43 Q331K mutation. In words: HEK/TDP Survival assay (Cell-Titer-Glo). The conditions noted are these: Homo sapiens; HEK 293T TDP-43 Q331K, 48 hrs, CTG readout. Format: cell-based. Here is the method: HEK/TDP Survival assay: Immortalized human embryonic kidney 293T (HEK 293T) were transfected with plasmids containing TDP-43 Q331K mutation, resulting in an increase in cell death that is biologically relevant to ALS patients. Cell death is measured as reductions in the amount of ATP, an indicator of metabolically active cells, that is quantified by a luminescence Cell-Titer-Glo® (CTG) reagent. Compounds are evaluated in this model for changes in CTG compared to no treatment group. Increased signal indicates improved survival (rescue) and decreased signal indicates decreased survival.
Cell rescue was measured in a 96-well format with eight different concentrations of the test compound over 48 hrs with 6 replicates. The Promega Cell-Titer-Glo® Luminescent Cell Viability Assay was used to quantify ATP, an indicator of metabolically active cells (see protocol: https://www.promega.com/-/media/files/resources/protocols/technical-manuals/101/celltiterglo-2-O-assay-protocol.pdf?la=en). The luminescence signal was detected using the PerkinElmer En Vision or Molecular Devices SpectraMax.
The effect of a compound at a given dose on cell viability was determined using a three step procedure. First, Hedge's g for the Cell Titer-Glo luminescence values using six untreated wells on every plate as a control was calculated. […] Finally, values from all compound-dose pairs were corrected for multiple hypothesis testing using the Empirical Bayes framework of Stephens, M. (False discovery rates: a new deal, Biostatistics, 18 [2], 2017, 275-294) yielding credible intervals for the measured effect and associated s values.
Briefly, this method computes a local false sign rate for each experiment. Analogous to the local false discovery rate of Efron, B. (Size, power and false discovery rates, Ann. Statist. 35 [4], 2007, 1351-1377) this value measures the confidence in the sign of each effect (rather than confidence in each effect being non-zero). The s values reported in the previous figures are the expected fraction of errors if estimating the sign of all effects with greater absolute local false sign rate, defined in analogy to the q value of Storey, JD (The positive false discovery rate: a Bayesian interpretation and the q-value, Ann. Statist. 31 [6] 2003, 2013-2035).
Drugs that yielded signed log s values greater than 3 were considered hits. This threshold was determined by a separate calibration experiment in which Cell Titer-Glo® was measured in blank plates consisting of untreated cells to assess the noise inherent in the assay. Data are presented as the maximal effect of rescue obtained from the dose-response curve.

Full length human recombinant PIKFYVE, sequence (Q9Y2I7 whole entry): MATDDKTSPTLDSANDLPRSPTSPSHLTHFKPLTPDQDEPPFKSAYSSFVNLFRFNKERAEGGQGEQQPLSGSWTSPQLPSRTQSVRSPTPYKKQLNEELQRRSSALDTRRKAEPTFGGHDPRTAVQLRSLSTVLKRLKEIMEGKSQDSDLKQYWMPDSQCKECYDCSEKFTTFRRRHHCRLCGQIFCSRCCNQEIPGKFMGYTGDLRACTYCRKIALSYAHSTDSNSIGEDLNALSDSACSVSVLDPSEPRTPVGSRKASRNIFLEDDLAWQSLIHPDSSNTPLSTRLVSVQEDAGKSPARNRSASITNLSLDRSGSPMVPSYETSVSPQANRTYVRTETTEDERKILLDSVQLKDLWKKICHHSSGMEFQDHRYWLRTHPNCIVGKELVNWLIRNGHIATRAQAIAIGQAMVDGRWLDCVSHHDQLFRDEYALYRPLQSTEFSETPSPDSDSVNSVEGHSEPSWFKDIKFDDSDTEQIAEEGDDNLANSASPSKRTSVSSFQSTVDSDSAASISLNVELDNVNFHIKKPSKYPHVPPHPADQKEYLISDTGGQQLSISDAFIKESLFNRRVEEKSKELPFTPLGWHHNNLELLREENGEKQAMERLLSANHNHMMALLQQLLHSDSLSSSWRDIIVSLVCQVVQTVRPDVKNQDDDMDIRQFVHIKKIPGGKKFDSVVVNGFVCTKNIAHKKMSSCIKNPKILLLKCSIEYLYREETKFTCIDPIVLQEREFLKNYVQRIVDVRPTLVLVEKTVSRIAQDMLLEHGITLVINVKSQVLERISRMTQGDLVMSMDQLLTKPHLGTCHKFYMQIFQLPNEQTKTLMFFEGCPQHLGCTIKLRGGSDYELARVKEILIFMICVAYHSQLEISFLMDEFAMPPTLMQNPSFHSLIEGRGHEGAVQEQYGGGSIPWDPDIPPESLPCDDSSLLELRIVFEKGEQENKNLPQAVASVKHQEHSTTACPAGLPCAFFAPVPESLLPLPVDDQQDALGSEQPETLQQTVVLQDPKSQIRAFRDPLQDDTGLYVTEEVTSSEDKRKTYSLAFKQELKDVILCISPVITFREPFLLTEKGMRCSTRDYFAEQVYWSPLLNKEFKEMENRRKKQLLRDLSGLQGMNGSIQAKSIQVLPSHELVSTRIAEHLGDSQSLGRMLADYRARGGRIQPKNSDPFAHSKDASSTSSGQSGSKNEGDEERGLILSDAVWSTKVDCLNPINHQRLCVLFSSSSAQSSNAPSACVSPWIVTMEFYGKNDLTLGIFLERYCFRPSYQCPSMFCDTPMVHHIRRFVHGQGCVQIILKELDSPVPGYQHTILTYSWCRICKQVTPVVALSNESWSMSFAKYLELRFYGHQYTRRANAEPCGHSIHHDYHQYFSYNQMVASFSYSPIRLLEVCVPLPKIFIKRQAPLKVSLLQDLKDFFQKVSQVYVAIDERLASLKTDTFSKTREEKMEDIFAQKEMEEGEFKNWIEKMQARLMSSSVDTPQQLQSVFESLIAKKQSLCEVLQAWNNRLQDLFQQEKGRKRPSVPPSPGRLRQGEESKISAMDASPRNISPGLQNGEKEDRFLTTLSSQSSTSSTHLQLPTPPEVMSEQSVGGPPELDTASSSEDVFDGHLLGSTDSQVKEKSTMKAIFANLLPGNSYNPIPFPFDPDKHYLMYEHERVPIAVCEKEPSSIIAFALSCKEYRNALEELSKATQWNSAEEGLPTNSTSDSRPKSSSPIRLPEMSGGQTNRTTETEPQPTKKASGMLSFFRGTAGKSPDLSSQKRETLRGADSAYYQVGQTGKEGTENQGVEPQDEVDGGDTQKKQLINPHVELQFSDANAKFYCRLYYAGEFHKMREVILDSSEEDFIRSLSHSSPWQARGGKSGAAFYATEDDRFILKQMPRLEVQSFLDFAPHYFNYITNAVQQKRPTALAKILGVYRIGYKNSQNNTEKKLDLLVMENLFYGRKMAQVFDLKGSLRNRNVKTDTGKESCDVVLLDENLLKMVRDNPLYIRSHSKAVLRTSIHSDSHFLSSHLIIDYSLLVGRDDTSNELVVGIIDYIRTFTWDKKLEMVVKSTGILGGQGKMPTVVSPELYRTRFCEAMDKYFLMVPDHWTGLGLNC

Take `CONC(=O)c1cc2nc(-n3ccc(-c4cccc(C)c4)n3)cc(N3CCOCC3)n2n1` [Example 34, N-methoxy-7-morpholino-5-(3-(m-tolyl)-1H-pyrazol-1-yl)pyrazolo[1,5-a]pyrimidine-2-carboxamide]: the IC50 in experiment [1] turned out to be 65.6 nM. The “C9 iPSC MN Survival hazard ratio” value in experiment [2] is reported as 0.82.

For the molecule `Cc1cccc(-c2ccn(-c3cc(N4CCOCC4)n4nc(C(=O)N[C@H](C)C5CC5)cc4n3)n2)c1` [Example 21, (R)—N-(1-cyclopropylethyl)-7-morpholino-5-(3-(m-tolyl)-1H-pyrazol-1-yl)pyrazolo[1,5-a]pyrimidine-2-carboxamide], the IC50 in experiment [1] is 21.6 nM. The molecule also showed an EC50 in experiment [3] of 110 nM.

Turning to `Cc1cccc(-c2ccn(-c3cc(N4CCOCC4)n4nc(C(=O)NCCCCN(C)C)cc4n3)n2)c1` [Example 41, N-(4-(dimethylamino)butyl)-7-morpholino-5-(3-(m-tolyl)-1H-pyrazol-1-yl)pyrazolo[1,5-a]pyrimidine-2-carboxamide], in experiment [1], the IC50 is 32.4 nM. This molecule displayed a 50% effective concentration (EC50) in experiment [3] of 67 nM.

On to `Cc1cccc(-c2ccn(-c3cc(N4CCOCC4)n4nc(C(=O)NC5CCCC5)cc4n3)n2)c1` [Example 36, N-cyclopentyl-7-morpholino-5-(3-(m-tolyl)-1H-pyrazol-1-yl)pyrazolo[1,5-a]pyrimidine-2-carboxamide], for which the IC50 in experiment [1] was determined as 21.6 nM. The same molecule yielded an EC50 in experiment [3] of 67 nM.

`Cc1cccc(-c2ccn(-c3cc(N4CCOCC4)n4nc(-c5cccnc5)cc4n3)n2)c1` [Example 17, 4-(2-(pyridin-3-yl)-5-(3-(m-tolyl)-1H-pyrazol-1-yl)pyrazolo[1,5-a]pyrimidin-7-yl)morpholine]: the IC50 in experiment [1] is 6.8 nM. Also, the 50% effective concentration (EC50) was found to be 95 nM in experiment [3] and 1000 nM in experiment [2]. Moreover, in experiment [2], the “C9 iPSC MN Survival hazard ratio” value stood at 0.82.

On to `Cc1cccc(-c2ccn(-c3cc(N4CCOCC4)n4nc(C(=O)NC5CC5)cc4n3)n2)c1` [Example 20, N-cyclopropyl-7-morpholino-5-(3-(m-tolyl)-1H-pyrazol-1-yl)pyrazolo[1,5-a]pyrimidine-2-carboxamide], for which the IC50 in experiment [1] stood at 30.2 nM. This molecule displayed a half-maximal effective concentration (EC50) in experiment [3] of 103 nM. The “C9 iPSC MN Survival hazard ratio” value in experiment [2] worked out at 0.85.

`Cc1cccc(-c2ccn(-c3cc(N4CCOCC4)n4nc(-c5ccccn5)cc4n3)n2)c1` [Example 18, 4-(2-(pyridin-2-yl)-5-(3-(m-tolyl)-1H-pyrazol-1-yl)pyrazolo[1,5-a]pyrimidin-7-yl)morpholine]: in experiment [1], the IC50 came out at 29.6 nM. The results for the EC50 in experiment [3] and in experiment [2] were 105 nM and 1000 nM, respectively.

On to `Cc1cccc(-c2ccn(-c3cc(N4CCOCC4)n4nc(C(=O)N[C@@H](C)C5CC5)cc4n3)n2)c1` [Example 22, (S)—N-(1-cyclopropylethyl)-7-morpholino-5-(3-(m-tolyl)-1H-pyrazol-1-yl)pyrazolo[1,5-a]pyrimidine-2-carboxamide], for which, in experiment [1], the IC50 was determined as 12.6 nM. Further, the EC50 in experiment [3] is 112 nM.

`Cc1cccc(-c2ccn(-c3cc(N4CCOCC4)n4nc(-c5ccncc5)cc4n3)n2)c1` [Example 14, 4-[5-[3-(m-tolyl)pyrazol-1-yl]-2-(4-pyridyl)pyrazolo[1,5-a]pyrimidin-7-yl]morpholine]: the IC50 in experiment [1] stood at 4.3 nM. Besides, in experiment [3], the concentration giving a half-maximal response (EC50) came to 144 nM. In experiment [2], the EC50 was above 6000 nM and the “C9 iPSC MN Survival hazard ratio” value is recorded as 0.94.

In the case of `Cc1cccc(-c2ccn(-c3cc(N4CCOCC4)n4nc(C(=O)NCC5COC5)cc4n3)n2)c1` [Example 43, 7-morpholino-N-(oxetan-3-ylmethyl)-5-(3-(m-tolyl)-1H-pyrazol-1-yl)pyrazolo[1,5-a]pyrimidine-2-carboxamide], the IC50 in experiment [1] was 46.4 nM. This molecule also came in with an EC50 in experiment [3] of 92 nM.
